Patent US20210101879A1, “AMYLOID PROTEIN-SELECTIVE BACE INHIBITORS (ASBIs) FOR ALZHEIMER?S DISEASE” (The Regents of the University of California, priority 2018, published 2021)
Where “and” joins values, the source holds several entries; their conditions need not be identical. Identical values can stand only once. Like-named read-outs stand apart in the source and are kept apart here.

Assays:
PAMPA = format: in vitro ADME
BACE-1 = BACE-1 (Homo sapiens (Human), UniProt P56817); experiment: cell-free BACE enzyme assay with P5-P5′ substrate; format: biochemical
Sequence of BACE-1 (P56817 46-501): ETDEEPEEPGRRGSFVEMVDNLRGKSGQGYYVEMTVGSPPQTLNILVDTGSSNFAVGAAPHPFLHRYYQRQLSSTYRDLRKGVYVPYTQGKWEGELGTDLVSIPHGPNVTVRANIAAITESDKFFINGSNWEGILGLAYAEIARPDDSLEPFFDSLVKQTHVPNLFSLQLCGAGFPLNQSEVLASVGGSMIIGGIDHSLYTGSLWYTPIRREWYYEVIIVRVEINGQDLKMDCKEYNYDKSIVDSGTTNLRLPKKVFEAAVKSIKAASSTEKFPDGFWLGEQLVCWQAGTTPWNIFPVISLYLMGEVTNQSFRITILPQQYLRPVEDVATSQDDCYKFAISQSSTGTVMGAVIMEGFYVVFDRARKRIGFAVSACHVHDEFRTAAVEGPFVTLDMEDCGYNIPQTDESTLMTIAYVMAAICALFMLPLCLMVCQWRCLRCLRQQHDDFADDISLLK
Procedure: For the assay, 4 μL of assay buffer was added to each well, followed by 2 μL of BACE-1 diluted in assay buffer to 7.5 ng/μL. Then, 2 μL of inhibitor, at concentrations along an 11 pt. two-fold dilution series starting at 0.5 μM, were added to appropriate wells and incubated for 30 minutes at room temperature. Afterwards, 2 μL of P5-P5′ BACE-1 substrate, diluted to 50 μM in assay buffer, were added to each well, after which the signal generated was read every 30 minutes at 25° C. for 2 hr.

Cathepsin D (CatD) = Cathepsin D (CatD) (Homo sapiens (Human), UniProt P07339); experiment: Cathepsin-D assay; format: biochemical
Sequence of Cathepsin D (CatD) (P07339 65-412, species assumed): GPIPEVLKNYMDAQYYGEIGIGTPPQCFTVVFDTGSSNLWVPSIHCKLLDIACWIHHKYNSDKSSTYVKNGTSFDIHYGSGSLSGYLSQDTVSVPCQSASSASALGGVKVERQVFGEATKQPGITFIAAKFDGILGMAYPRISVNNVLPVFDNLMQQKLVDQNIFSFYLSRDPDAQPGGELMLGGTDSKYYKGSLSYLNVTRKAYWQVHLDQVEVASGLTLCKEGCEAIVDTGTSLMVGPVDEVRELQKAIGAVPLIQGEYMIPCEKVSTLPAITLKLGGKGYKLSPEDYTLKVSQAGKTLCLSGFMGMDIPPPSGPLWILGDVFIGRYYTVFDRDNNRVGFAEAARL
Procedure: For the assay, 4 μL of assay buffer was added to each well, followed by 2 μL of Cathepsin D (CatD) diluted in assay buffer to 5 ng/μL. Then, 2 μL of inhibitor, prepared to get a testing concentration of 20 μM, were added to appropriated wells and incubated for 30 minutes at room temperature. Afterwards, 2 μL of CatD substrate, diluted to 50 μM in assay buffer, were added to each well, after which the signal generated was read every 30 minutes at 25° C. for 1 hr. Signals shown in FIG. 6 are representative of readings at 1 hr.

[1] = system: CHO-7W cells (stably transfected with human amyloid precursor protein wildtype); experiment: CHO-7W cell assay (AlphaLISA of media); format: cell-based, Chinese hamster; conditions: treatment for 24 hours
Procedure: For the assay, 50 μL of CHO-7W cells were added to each well at 4×10^5 cells/mL. Then, 50 μL of inhibitor, prepared for tested concentrations, were added to appropriated wells and incubated for 24 hours at 37° C. Afterwards, media from each well is collected and assayed using an AlphaLISA assay for respective analytes.

pharmacokinetics in mice = format: in vivo
[2] = cell-free, several replicate values per cell, some flagged 's' (flag not defined), read-out: BACE1 IC50

Row | Compound | PAMPA (PAMPA) | IC50 (BACE-1; [2]) | other results
1 | Cc1cc(C2(c3cocn3)N=C(N)N(C)C2=O)ccc1OC(F)F (stereo not shown) [FAH-38] | 3.46 | > 5000 nM | 
2 | Cc1cc(C2(c3cccc(-c4ccnnc4)c3)N=C(N)N(C)C2=O)ccc1OC(F)F (stereo not shown) [FAH-72] | 0.37 | 140 nM and 100 nM and 49 nM and 87 nM and 93 nM | 
3 | COc1cc(C2(c3ccc(OC(F)F)c(C)c3)N=C(N)N(C)C2=O)ccn1 (stereo not shown) [FAH-48] | 0.68 | 4350 nM | 
4 | Cc1cc(C2(c3cccc(-c4cccnc4)c3)N=C(N)N(C)C2=O)ccc1OC(F)F (stereo not shown) [FAH-32] | 0.91 and 0.92 | 11 nM and 16 nM and 17 nM | IC50 (Cathepsin D (CatD)): > 100 µM
5 | CC#Cc1cc(C2(c3ccc(OC(F)F)c(C)c3)N=C(N)N(C)C2=O)ccn1 (stereo not shown) [FAH-57] | 0.61 | 440 nM and 510 nM | amyloid-beta (Aβ) [1]: significantly decreased; soluble amyloid precursor protein beta (sAPPβ) [1]: significantly decreased
6 | CCCC1CC(C2(c3ccc(OC(F)F)c(C)c3)N=C(N)N(C)C2=O)CCN1C (stereo not shown) [FAH-68] | 0.20 | 16100 nM | 
7 | Cc1cc(C2(c3cccc(F)c3)N=C(N)N(Cc3ccccc3)C2=O)ccc1OC(F)F (stereo not shown) [FAH-42] | 2.29 |  | 
8 | CNCCc1cccc(C2(c3ccc(OC(F)F)c(C)c3)N=C(N)N(C)C2=O)c1 (stereo not shown) [FAH-63] | 0.38 |  | 
9 | COCc1cc(C2(c3ccc(OC(F)F)c(C)c3)N=C(N)N(C)C2=O)ccn1 (stereo not shown) [FAH-53] | 0.26 |  | 
10 | Cc1cc(C2(C3CCN(C)CC3)N=C(N)N(C)C2=O)ccc1OC(F)F (stereo not shown) [FAH-67] | 0.20 |  | 
11 | Cc1cc(C2(c3cccc(C4CNC4)c3)N=C(N)N(C)C2=O)ccc1OC(F)F (stereo not shown) [FAH-64] | 0.35 |  | 
12 | Cc1cc(C2(c3cncc(F)c3)N=C(N)N(C)C2=O)ccc1OC(F)F (stereo not shown) [FAH-37] | 0.54 | 1930 nM | 
13 | Cc1cc(C2(C3CCCCC3)N=C(N)N(C)C2=O)ccc1OC(F)F (stereo not shown) [FAH-59] | 4.43 | 720 nM | 
14 | Cc1cc(C2(c3cncnc3)N=C(N)N(C)C2=O)ccc1OC(F)F (stereo not shown) [FAH-33] | 0.24 | > 5000 nM | 
15 | Cc1cc(C2(c3cccc(-c4cnco4)c3)N=C(N)N(C)C2=O)ccc1OC(F)F (stereo not shown) [FAH-43] | 0.79 | 140 nM and 230 nM and 490 nM | amyloid-beta (Aβ) [1]: significantly decreased; soluble amyloid precursor protein beta (sAPPβ) [1]: significantly decreased
16 | COCc1cccc(C2(c3ccc(OC(F)F)c(C)c3)N=C(N)N(C)C2=O)c1 (stereo not shown) [FAH-44] | 0.91 |  | 
17 | Cc1cc(C2(c3cccc(-c4cncc(F)c4)c3)N=C(N)N(C)C2=O)ccc1OC(F)F (stereo not shown) [FAH-66] | 1.15 | 18 nM and 12 nM and 19 nM and 47 nM and 28 nM and 36 nM | amyloid-beta (Aβ) [1]: significantly decreased; soluble amyloid precursor protein beta (sAPPβ) [1]: significantly decreased
18 | CN1C(=O)C(c2cc(-c3cncc(F)c3)ccc2F)(C2CC2)N=C1N (stereo not shown) [FAH-126] |  |  | BACE1 IC50 (μM) (BACE-1; cell-free, several replicate values per cell, some flagged 's' (flag not defined)): inactive
19 | CNCc1cccc(C2(c3ccc(OC(F)F)c(C)c3)N=C(N)N(C)C2=O)c1 (stereo not shown) [FAH-62] | 0.35 |  | 
20 | Cc1cc(C2(c3cccc(-c4ccccc4)c3)N=C(N)N(C)C2=O)ccc1OC(F)F (stereo not shown) [FAH-73] | 5.11 | 530 nM and 690 nM | 
21 | Cc1cc(C2(c3cccc(F)c3)N=C(N)N(C)C2=S)ccc1OC(F)F (stereo not shown) [FAH-31] | 3.07 | 4340 nM and 3960 nM | 
22 | Cc1cc(C2(c3ccnc(F)c3)N=C(N)N(C)C2=O)ccc1OC(F)F (stereo not shown) [FAH-46] | 0.65 | 2990 nM | 
23 | Cc1cc(C2(C3CCCC(c4ncco4)C3)N=C(N)N(C)C2=O)ccc1OC(F)F (stereo not shown) [FAH-69] | 0.92 | 110 nM and 210 nM and 120 nM and 430 nM | 
24 | Cc1cc(C2(c3ccc(OC(F)F)c(C)c3)N=C(N)N(C)C2=O)ccn1 (stereo not shown) [FAH-47] | 0.46 | 3050 nM | 

More lines, main results first:

Row | PAMPA (PAMPA) | IC50 (BACE-1; [2]) | Compound | other results
25 |  | 780 nM and 450 nM and 2400 nM | Cc1cc(C2(c3cccc(-c4ccco4)c3)N=C(N)N(C)C2=O)ccc1OC(F)F (stereo not shown) [FAH-82] | 
26 | 0.30 | 250 nM | CN1C(=O)C(c2cccc(-c3cncnc3)c2)(c2ccc3c(c2)OCO3)N=C1N (stereo not shown) [FAH-136] | 
27 | 0.51 2 peaks | 220 nM | Cc1cc(C2(C3CCCC(c4cncnc4)C3)N=C(N)N(C)C2=O)ccc1OC(F)F (stereo not shown) [FAH-85] | 
28 | 0.53 and 0.49 and 0.50 | 14 nM and 13 nM and 5 nM and 24.6 nM | Cc1cc(C2(c3ccc(F)c(-c4cncnc4)c3)N=C(N)N(C)C2=O)ccc1OC(F)F (stereo not shown) [FAH-127, 2-amino-5-(4-(difluoromethoxy)-3-methylphenyl)-5-(4-fluoro-3-(pyrimidin-5-yl)phenyl)-3-methyl-3,5-dihydro-4H-imidazol-4-one] | brain penetrance (pharmacokinetics in mice): good brain-penetrance; brain peak (pharmacokinetics in mice; at 1 hour): ~3000 (range 600-6000) ng/g; IC50 (BACE-1; cell-free BACE assay): 13 nM
29 | solubility issue | 80 nM and 110 nM | Cc1cc(C2(c3cccc(-c4cncc(C5CC5)c4)c3)N=C(N)N(C)C2=O)ccc1OC(F)F (stereo not shown) [FAH-111] | 
30 | 0.38 | 150 nM and 210 nM | Cc1cc(C2(c3cccc(NC(=O)N(C)C)c3)N=C(N)N(C)C2=O)ccc1OC(F)F (stereo not shown) [FAH-99] | 
31 | 0.25 | 200 nM | Cc1cc(C2(c3cc(-c4cncnc4)ccc3F)N=C(N)N(C)C2=O)ccc1OC(F)F (stereo not shown) [FAH-156] | 
32 | 0.36 | 4.2 nM and 2.5 nM and 5.7 nM and 7.5 nM and 15 nM and 23 nM | CN1C(=O)C(c2ccc(OC(F)F)cc2)(c2cccc(-c3cncnc3)c2)N=C1N (stereo not shown) [FAH-74] | IC50 (BACE-1; cell-free BACE assay): 13 nM
33 | 0.32 | 1370 nM and 410 nM | CN1C(=O)C(c2cccc(-c3cncnc3)c2)(c2ccc3c(c2)CCO3)N=C1N (stereo not shown) [FAH-117] | 
34 | 0.68 |  | Cc1cc(C2(c3cccc(-c4cnccn4)c3)N=C(N)N(C)C2=O)ccc1OC(F)F (stereo not shown) [FAH-86] | IC50 (Cathepsin D (CatD)): > 50 µM
35 | 1.71 |  | CC#Cc1cncc(-c2cccc(C3(C(C)C)N=C(N)N(C)C3=O)c2)n1 (stereo not shown) [FAH-101] | 
36 | 0.59 | 460 nM | CN1C(=O)C(c2cccc(-c3cncnc3)c2)(c2ccc3c(c2)OC(F)(F)O3)N=C1N (stereo not shown) [FAH-137] | 
37 | 0.51 and 0.53 | 2910 nM and 2330 nM and 9190 nM | CN1C(=O)C(c2cnc(OC(F)F)nc2)(c2cccc(F)c2)N=C1N (stereo not shown) [FAH-83] | 
38 | 0.46 | 20 nM | CC#Cc1cncc(-c2cc(C3(c4ccnc(C(F)F)c4)N=C(N)N(C)C3=O)ccc2F)c1 (stereo not shown) [FAH-152] | 
39 | 0.58 | 300 nM and 340 nM and 420 nM and 290 nM | Cc1cc(C2(c3cccc(-c4ccncn4)c3)N=C(N)N(C)C2=O)ccc1OC(F)F (stereo not shown) [FAH-87] | 
40 | 2.36 | 2180 nM and 3160 nM | CCCc1cncc(-c2cccc(C3(C(C)C)N=C(N)N(C)C3=O)c2)n1 (stereo not shown) [FAH-106] | 
41 | 4.53 2-peaks | 840 nM and 600 nM and 2130 nM | CC1CCN(c2cccc(C3(c4ccc(OC(F)F)cc4)N=C(N)N(C)C3=O)c2)C1 (stereo not shown) [FAH-88] | 
42 | 0.30 |  | CN1C(=O)C(c2ccc(OCF)cc2)(c2cccc(-c3cncnc3)c2)N=C1N (stereo not shown) [FAH-84] | 
43 | 0.40 | 8870 nM and 4930 nM and 6880 nM | Cc1ncc(-c2cccc(C3(C4CC4)N=C(N)N(C)C3=O)c2)cn1 (stereo not shown) [FAH-107] | 
44 | 0.52 | 270 nM and 260 nM | CN1C(=O)C(c2cccc(-c3cncnc3)c2)(c2ccc3occc3c2)N=C1N (stereo not shown) [FAH-116] | 
45 | 0.62 | 210 nM and 240 nM and 150 nM and 420 nM | Cc1cccc(C2(c3cccc(-c4cccnc4)c3)N=C(N)N(C)C2=O)c1 (stereo not shown) [FAH-75] | 
46 | 0.26 | 210 nM | CN1C(=O)C(c2cccc(-c3cncnc3)c2)(c2ccc3c(c2)OCCO3)N=C1N (stereo not shown) [FAH-135] | 
47 | 0.27 | 2310 nM and 4850 nM | CN1C(=O)C(C)(c2cccc(-c3cncnc3)c2)N=C1N (stereo not shown) [FAH-100] | 
48 | 0.46 | 47 nM and 38 nM | Cc1cc(C2(c3cccc(-c4cnc(N)nc4)c3)N=C(N)N(C)C2=O)ccc1OC(F)F (stereo not shown) [FAH-110] | IC50 (BACE-1; cell-free BACE assay): 43 nM
